According to patent US20230278972A1, “SUBSTITUTED HALOALKYL SULFONANILIDE HERBICIDES” (FMC Corporation, priority 2020, published 2023):

How the values were obtained:
Type in all cases: in vivo
[1] = test system: blackgrass (Alopecurus myosuroides); assay: Test A postemergence, blackgrass; settings: Postemergence, 0 to 100 scale (0 no effect, 100 complete control); for Blackgrass plant response rating: 500 g ai/ha, visual injury vs untreated controls after approx. 10 days
In short: (§1)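 Preemergence: seeded pots of loam plus sand received a directed soil spray. Postemergence: seedlings at one to two leaves, 2 to 10 cm high, were oversprayed. Each compound was formulated in a non-phytotoxic solvent mix that included a surfactant.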

[2] = test system: ragweed (common ragweed, Ambrosia artemisiifolia); assay: Test A postemergence, ragweed; settings: Postemergence, 0 to 100 scale (0 no effect, 100 complete control); for Ragweed plant response rating: 500 g ai/ha, visual injury vs untreated controls after approx. 10 days
In short: as §1

kochia (Bassia scoparia) [3] = assay: Test A postemergence, kochia; settings: Postemergence, 0 to 100 scale (0 no effect, 100 complete control); for Kochia plant response rating: 500 g ai/ha, visual injury vs untreated controls after approx. 10 days
In short: as §1

[4] = test system: Foxtail, Giant (giant foxtail, Setaria faberi); assay: Test A preemergence, Foxtail, Giant; settings: Preemergence; for Plant response rating, Foxtail, Giant: 0 to 100 scale (0 no effect, 100 complete control); for Foxtail, Giant plant response rating: visual injury on 0 to 100 scale (0 no effect, 100 complete control), approximately 10 days
In short: as §1

kochia (Bassia scoparia) [5] = assay: Test A preemergence, kochia; settings: Preemergence; for Plant response rating, Kochia: 0 to 100 scale (0 no effect, 100 complete control); for Kochia plant response rating: visual injury on 0 to 100 scale (0 no effect, 100 complete control), approximately 10 days
In short: as §1

[6] = test system: pigweed (Amaranthus retroflexus); assay: Test A preemergence, pigweed; settings: for Plant response rating, Pigweed: 0 to 100 scale (0 no effect, 100 complete control); for Pigweed plant response rating: visual injury on 0 to 100 scale (0 no effect, 100 complete control), approximately 10 days
In short: (§2)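 Directed soil spray at planting gave the preemergence treatment, while foliar application to one- to two-leaf seedlings (2–10 cm) gave the postemergence one; pots held a loam and sand mixture and chemicals were carried in a non-phytotoxic solvent with surfactant.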

[7] = test system: galium (catchweed bedstraw, Galium aparine); assay: Test A postemergence, galium; settings: Postemergence, 0 to 100 scale (0 no effect, 100 complete control); for Galium plant response rating: 500 g ai/ha, visual injury vs untreated controls after approx. 10 days
In short: as §2

[8] = test system: Ryegrass, Italian (Italian ryegrass, Lolium multiflorum); assay: Test A preemergence, Ryegrass, Italian; settings: Preemergence; for Plant response rating, Ryegrass, Italian: 0 to 100 scale (0 no effect, 100 complete control); for Ryegrass, Italian plant response rating: visual injury on 0 to 100 scale (0 no effect, 100 complete control), approximately 10 days
In short: as §1

[9] = test system: barnyardgrass (Echinochloa crus-galli); assay: Test A preemergence, barnyardgrass; settings: Preemergence; for Plant response rating, Barnyardgrass: 0 to 100 scale (0 no effect, 100 complete control); for Barnyardgrass plant response rating: visual injury on 0 to 100 scale (0 no effect, 100 complete control), approximately 10 days
In short: as §1

[10] = test system: barnyardgrass (Echinochloa crus-galli); assay: Test A postemergence, barnyardgrass; settings: Postemergence, 0 to 100 scale (0 no effect, 100 complete control); for Barnyardgrass plant response rating: 500 g ai/ha, visual injury vs untreated controls after approx. 10 days
In short: as §2

[11] = test system: wheat (Triticum aestivum); assay: Test A postemergence, wheat; settings: Postemergence, 0 to 100 scale (0 no effect, 100 complete control); for Wheat plant response rating: 500 g ai/ha, visual injury vs untreated controls after approx. 10 days
In short: as §2

[12] = test system: Ryegrass, Italian (Italian ryegrass, Lolium multiflorum); assay: Test A postemergence, Ryegrass, Italian; settings: Postemergence, 0 to 100 scale (0 no effect, 100 complete control); for Ryegrass, Italian plant response rating: 500 g ai/ha, visual injury vs untreated controls after approx. 10 days
In short: as §1

corn (Zea mays) = assay: Test A postemergence, corn; settings: Postemergence, 0 to 100 scale (0 no effect, 100 complete control); for Corn plant response rating: 500 g ai/ha, visual injury vs untreated controls after approx. 10 days
In short: as §1

[13] = test system: pigweed (Amaranthus retroflexus); assay: Test A postemergence, pigweed; settings: Postemergence, 0 to 100 scale (0 no effect, 100 complete control); for Pigweed plant response rating: 500 g ai/ha, visual injury vs untreated controls after approx. 10 days
In short: as §1

[14] = test system: Foxtail, Giant (giant foxtail, Setaria faberi); assay: Test A postemergence, Foxtail, Giant; settings: Postemergence, 0 to 100 scale (0 no effect, 100 complete control); for Foxtail, Giant plant response rating: 500 g ai/ha, visual injury vs untreated controls after approx. 10 days
In short: as §1

[15] = test system: ragweed (common ragweed, Ambrosia artemisiifolia); assay: Test A preemergence, ragweed; settings: Preemergence; for Plant response rating, Ragweed: 0 to 100 scale (0 no effect, 100 complete control); for Ragweed plant response rating: visual injury on 0 to 100 scale (0 no effect, 100 complete control), approximately 10 days
In short: as §1

[16] = 125 g ai/ha, visual injury approx. 10 days
[17] = 31 g ai/ha, visual injury, approx. 10 days
[18] = 125 g ai/ha, visual injury, approx. 10 days

Cc1cc(C(=O)N2CCOC(C)(C)C2)cc(NS(=O)(=O)C(F)(F)F)c1Cl [Compound 2]
Plant response rating, Blackgrass ([1]; 31 g ai/ha): 0
Plant response rating, Blackgrass [1, 16]: 0
Plant response rating, Ragweed ([2]; 31 g ai/ha): 30
Plant response rating, Ragweed [2, 16]: 80
Plant response rating, Kochia (kochia (Bassia scoparia) [3]; 31 g ai/ha): 10
Plant response rating, Kochia (kochia (Bassia scoparia) [3]; [16]): 20
Plant response rating, Foxtail, Giant [4, 17]: 80
Foxtail, Giant plant response rating ([4]; 125 g ai/ha): 80
Plant response rating, Kochia (kochia (Bassia scoparia) [5]; [17]): 20
Kochia plant response rating (kochia (Bassia scoparia) [5]; 125 g ai/ha): 50
Plant response rating, Pigweed [6, 17]: 100
Pigweed plant response rating ([6]; 125 g ai/ha): 100
Plant response rating, Galium ([7]; 31 g ai/ha): 90
Plant response rating, Galium [7, 16]: 90
Plant response rating, Ryegrass, Italian [8, 17]: 30
Ryegrass, Italian plant response rating ([8]; 125 g ai/ha): 50
Plant response rating, Barnyardgrass [9, 17]: 0
Barnyardgrass plant response rating ([9]; 125 g ai/ha): 60
Plant response rating, Barnyardgrass ([10]; 31 g ai/ha): 30
Plant response rating, Barnyardgrass [10, 16]: 80
Plant response rating, Wheat ([11]; 31 g ai/ha): 40
Plant response rating, Wheat [11, 16]: 60
Plant response rating, Ryegrass, Italian ([12]; 31 g ai/ha): 0
Plant response rating, Ryegrass, Italian [12, 16]: 40
Plant response rating, Corn (corn (Zea mays); 31 g ai/ha): 20
Plant response rating, Corn (corn (Zea mays); [16]): 30
Plant response rating, Pigweed ([13]; 31 g ai/ha): 60
Plant response rating, Pigweed [13, 16]: 70
Plant response rating, Foxtail, Giant ([14]; 31 g ai/ha): 20
Plant response rating, Foxtail, Giant [14, 16]: 50
Plant response rating, Ragweed [15, 17]: 30
Ragweed plant response rating ([15]; 125 g ai/ha): 90

Cc1c(NS(=O)(=O)C(F)(F)F)cc(C(=O)N2CCCCC2)c(C)c1F [Compound 191]
Plant response rating, Blackgrass ([1]; 125 g ai/ha): 0
Blackgrass plant response rating [1]: 0
Plant response rating, Ragweed ([2]; 125 g ai/ha): 20
Ragweed plant response rating [2]: 60
Plant response rating, Kochia (kochia (Bassia scoparia) [3]; 125 g ai/ha): 0
Kochia plant response rating (kochia (Bassia scoparia) [3]): 20
Plant response rating, Foxtail, Giant [4, 18]: 100
Plant response rating, Foxtail, Giant ([4]; 500 g ai/ha): 100
Plant response rating, Kochia (kochia (Bassia scoparia) [5]; [18]): 90
Plant response rating, Kochia (kochia (Bassia scoparia) [5]; 500 g ai/ha): 90
Plant response rating, Pigweed [6, 18]: 100
Plant response rating, Pigweed ([6]; 500 g ai/ha): 100
Plant response rating, Galium ([7]; 125 g ai/ha): 70
Galium plant response rating [7]: 90
Plant response rating, Ryegrass, Italian [8, 18]: 70
Plant response rating, Ryegrass, Italian ([8]; 500 g ai/ha): 100
Plant response rating, Barnyardgrass [9, 18]: 100
Plant response rating, Barnyardgrass ([9]; 500 g ai/ha): 100
Plant response rating, Barnyardgrass ([10]; 125 g ai/ha): 0
Barnyardgrass plant response rating [10]: 30
Plant response rating, Wheat ([11]; 125 g ai/ha): 30
Wheat plant response rating [11]: 60
Plant response rating, Ryegrass, Italian ([12]; 125 g ai/ha): 30
Ryegrass, Italian plant response rating [12]: 60
Plant response rating, Corn (corn (Zea mays); 125 g ai/ha): 0
Corn plant response rating (corn (Zea mays)): 10
Plant response rating, Pigweed ([13]; 125 g ai/ha): 20
Pigweed plant response rating [13]: 70
Plant response rating, Foxtail, Giant ([14]; 125 g ai/ha): 0
Foxtail, Giant plant response rating [14]: 20
Plant response rating, Ragweed [15, 18]: 60
Plant response rating, Ragweed ([15]; 500 g ai/ha): 100

Cc1c(NS(=O)(=O)C(F)(F)F)cc(C(=O)N2CCC(F)CC2)c(C)c1F [Compound 109]
Plant response rating, Blackgrass [1, 16]: 10
Blackgrass plant response rating [1]: 10
Plant response rating, Ragweed [2, 16]: 70
Ragweed plant response rating [2]: 80
Plant response rating, Kochia (kochia (Bassia scoparia) [3]; [16]): 10
Kochia plant response rating (kochia (Bassia scoparia) [3]): 40
Foxtail, Giant plant response rating ([4]; 125 g ai/ha): 100
Plant response rating, Foxtail, Giant ([4]; 500 g ai/ha): 100
Kochia plant response rating (kochia (Bassia scoparia) [5]; 125 g ai/ha): 90
Plant response rating, Kochia (kochia (Bassia scoparia) [5]; 500 g ai/ha): 100
Pigweed plant response rating ([6]; 125 g ai/ha): 100
Plant response rating, Pigweed ([6]; 500 g ai/ha): 100
Plant response rating, Galium [7, 16]: 80
Galium plant response rating [7]: 90
Ryegrass, Italian plant response rating ([8]; 125 g ai/ha): 70
Plant response rating, Ryegrass, Italian ([8]; 500 g ai/ha): 80
Barnyardgrass plant response rating ([9]; 125 g ai/ha): 90
Plant response rating, Barnyardgrass ([9]; 500 g ai/ha): 100
Plant response rating, Barnyardgrass [10, 16]: 0
Barnyardgrass plant response rating [10]: 70
Plant response rating, Wheat [11, 16]: 30
Wheat plant response rating [11]: 70
Plant response rating, Ryegrass, Italian [12, 16]: 40
Ryegrass, Italian plant response rating [12]: 60
Plant response rating, Corn (corn (Zea mays); [16]): 0
Corn plant response rating (corn (Zea mays)): 40
Plant response rating, Pigweed [13, 16]: 50
Pigweed plant response rating [13]: 80
Plant response rating, Foxtail, Giant [14, 16]: 0
Foxtail, Giant plant response rating [14]: 40
Ragweed plant response rating ([15]; 125 g ai/ha): 90
Plant response rating, Ragweed ([15]; 500 g ai/ha): 90

COCC1(COC)CC(c2cc(NS(=O)(=O)C(F)(F)F)c(C)cc2C)=NO1 [Compound 104]
Plant response rating, Blackgrass [1, 16]: 0
Blackgrass plant response rating [1]: 20
Plant response rating, Ragweed [2, 16]: 70
Ragweed plant response rating [2]: 90
Plant response rating, Kochia (kochia (Bassia scoparia) [3]; [16]): 30
Kochia plant response rating (kochia (Bassia scoparia) [3]): 40
Foxtail, Giant plant response rating ([4]; 125 g ai/ha): 90
Plant response rating, Foxtail, Giant ([4]; 500 g ai/ha): 100
Kochia plant response rating (kochia (Bassia scoparia) [5]; 125 g ai/ha): 0
Plant response rating, Kochia (kochia (Bassia scoparia) [5]; 500 g ai/ha): 50
Pigweed plant response rating ([6]; 125 g ai/ha): 70
Plant response rating, Pigweed ([6]; 500 g ai/ha): 90
Plant response rating, Galium [7, 16]: 90
Galium plant response rating [7]: 90
Ryegrass, Italian plant response rating ([8]; 125 g ai/ha): 50
Plant response rating, Ryegrass, Italian ([8]; 500 g ai/ha): 100
Barnyardgrass plant response rating ([9]; 125 g ai/ha): 90
Plant response rating, Barnyardgrass ([9]; 500 g ai/ha): 100
Plant response rating, Barnyardgrass [10, 16]: 80
Barnyardgrass plant response rating [10]: 90
Plant response rating, Wheat [11, 16]: 20
Wheat plant response rating [11]: 60
Plant response rating, Ryegrass, Italian [12, 16]: 10
Ryegrass, Italian plant response rating [12]: 40
Plant response rating, Corn (corn (Zea mays); [16]): 30
Corn plant response rating (corn (Zea mays)): 80
Plant response rating, Pigweed [13, 16]: 40
Pigweed plant response rating [13]: 80
Plant response rating, Foxtail, Giant [14, 16]: 20
Foxtail, Giant plant response rating [14]: 70
Ragweed plant response rating ([15]; 125 g ai/ha): 30
Plant response rating, Ragweed ([15]; 500 g ai/ha): 60
